For 6 compounds, inhibition results are on record in patent publication US20240116845A1, “INDENE COMPOUNDS, PHARMACEUTICAL COMPOSITIONS THEREOF, AND THEIR THERAPEUTIC APPLICATIONS” (NucMito Pharmaceuticals Co., Ltd., priority 2021, published 2024).

Holding throughout (type): cell-based
In test [1] the test system is MDA-MB-231 (breast cancer). Put plainly: Antiproliferative activity, CCK-8 cell viability. The note with it: Homo sapiens, 72 h, read-out: Inhibition of Cancerous Cells, MDA-MB-231; for inhibition at 3.3 µM: compound concentration of 3.3 μM; for inhibition at 10 µM: compound concentration of 10 μM; for inhibition at 30 µM: compound concentration of 30 μM. In short, it runs like this: (§1)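 Viability relative to DMSO controls came from CCK-8 absorbance at 450 nm after 72 h exposure at 37°C. Compound concentrations were 3.3, 10 or 30 μM, in DMEM plus 10% FBS. Results are categorised by inhibition level: at least 50%, 30 to under 50%, or under 30%.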

In test [2] the test system is B16F10 (malignant melanoma). The test is described as follows: Antiproliferative activity, CCK-8 cell viability. The following applies: Mus musculus, B16-F10, 72 h, read-out: Inhibition of Cancerous Cells, B16F10; for inhibition at 3.3 µM: compound concentration of 3.3 μM; for inhibition at 10 µM: compound concentration of 10 μM; for inhibition at 30 µM: compound concentration of 30 μM. In short, it runs like this: as §1

For test [3], the system named is A549 (lung adenocarcinoma). Put plainly: Antiproliferative activity, CCK-8 cell viability. The following applies: Homo sapiens, 72 h, read-out: Inhibition of Cancerous Cells, A549; for inhibition at 3.3 µM: compound concentration of 3.3 μM; for inhibition at 10 µM: compound concentration of 10 μM; for inhibition at 30 µM: compound concentration of 30 μM.
The next test has as its system SW480 (colon cancer). Put plainly: Antiproliferative activity, CCK-8 cell viability. The note with it: Homo sapiens, 72 h, read-out: Inhibition of Cancerous Cells, SW480; for inhibition at 3.3 µM: compound concentration of 3.3 μM; for inhibition at 10 µM: compound concentration of 10 μM; for inhibition at 30 µM: compound concentration of 30 μM. A digest of the protocol: as §1

The subject of a further test is HeLa (cervical cancer). The test is described as follows: Antiproliferative activity, CCK-8 cell viability. The note with it: Homo sapiens, 72 h, read-out: Inhibition of Cancerous Cells, HELA; for inhibition at 3.3 µM: compound concentration of 3.3 μM; for inhibition at 10 µM: compound concentration of 10 μM; for inhibition at 30 µM: compound concentration of 30 μM.

For the next test, the system named is HepG2 (liver cancer). The test is described as follows: Antiproliferative activity, CCK-8 cell viability. The following applies: Homo sapiens, 72 h, read-out: Inhibition of Cancerous Cells, HepG2; for inhibition at 3.3 µM: compound concentration of 3.3 μM; for inhibition at 10 µM: compound concentration of 10 μM; for inhibition at 30 µM: compound concentration of 30 μM. A digest of the protocol:
as §1

The test system of test [4] is A431 (epidermoid carcinoma). The test is described as follows: Antiproliferative activity, CCK-8 cell viability. The following applies: Homo sapiens, A-431, 72 h, read-out: Inhibition of Cancerous Cells, A431; for inhibition at 3.3 µM: compound concentration of 3.3 μM; for inhibition at 10 µM: compound concentration of 10 μM; for inhibition at 30 µM: compound concentration of 30 μM. A digest of the protocol: as §1

Test [5] concerns alpha-smooth muscle actin (α-SMA). Put plainly: Inhibition of TGF-β induced expression of alpha-smooth muscle actin in CFSC cells (western blot). The note with it: compound at 10 μM, TGF-β (10 ng/mL), 24 hours. A digest of the protocol: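 Read-out is percent decrease in α-SMA western-blot band intensity, β-actin also probed, relative to TGF-β-only cells. CFSC cells were co-treated for 24 h at 37 °C with 10 ng/mL TGF-β and 10 μM compound in serum-free DMEM.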
For orientation: Immunoblotting shows a protein as a band on a membrane.

As for `O=C(O)CC1=C(Cc2ccccc2)/C(=C/c2ccc(Oc3ccc(F)cc3)cc2)c2ccc(F)cc21` [Compound D9, 2-[(1Z)-5-Fluoro-2-benzyl-1-({4-[4-fluorophenoxy]phenyl}methylidene)-1H-inden-3-yl]acetic acid], the inhibition (commonly the relative decrease from the control value, in per cent) at 3.3 µM is at least 50% in test [1]; under 30% in test [2]; 30 to 50% in test [3]; 30 to 50% with SW480 (colon cancer); 30 to 50% with HeLa (cervical cancer); under 30% with HepG2 (liver cancer). Further, the inhibition at 3.3 µM in test [4] was 30 to 50%. Besides, the inhibition at 10 µM in test [1] was at least 50%; in test [2], at least 50%; in test [3] it was at least 50%; in the test with SW480 (colon cancer), at least 50%; in the test with HeLa (cervical cancer), 30 to 50%; in the test with HepG2 (liver cancer), under 30%. The inhibition at 10 µM in test [4] was at least 50%; in test [5], at least 80%. The inhibition at 30 µM (in test [1]; in test [2]; in test [3]; in the test on SW480 (colon cancer); in the test with HeLa (cervical cancer); with HepG2 (liver cancer)) was at least 50% each time. Moreover, the inhibition at 30 µM in test [4] was at least 50%.
For the compound `CC1=C(CC(=O)O)c2cc(F)cc(F)c2/C1=C/c1ccc(Oc2ccc(F)cc2)cc1` [Compound E4, 2-[(1E)-5,7-Difluoro-2-methyl-1-({4-[4-fluorophenoxy]phenyl}methylidene)-1H-inden-3-yl]acetic acid], the inhibition at 3.3 µM in test [1] is at least 50%; in test [2] it was at least 50%; in test [3], under 30%; with SW480 (colon cancer), under 30%; in the test with HeLa (cervical cancer), 30 to 50%; in the test on HepG2 (liver cancer), at least 50%. Further, in test [4], the inhibition at 3.3 µM is under 30%. Further, the inhibition at 10 µM in test [1] is at least 50%; in test [2], at least 50%; in test [3] it was 30 to 50%; with SW480 (colon cancer), at least 50%; in the test with HeLa (cervical cancer) it was at least 50%; in the test with HepG2 (liver cancer) it was at least 50%. For the same compound, the inhibition at 10 µM in test [4] is at least 50%; in test [5] it was at least 80%. Moreover, the inhibition at 30 µM (in test [1]; in test [2]; in test [3]; with SW480 (colon cancer); with HeLa (cervical cancer); in the test on HepG2 (liver cancer)) was at least 50% throughout. Moreover, the inhibition at 30 µM in test [4] was at least 50%.
`CC1=C(CC(=O)N(C)O)c2cc(F)ccc2/C1=C\c1ccc(Oc2ccccc2)cc1` [Compound B1, 2-[(1Z)-5-Fluoro-2-methyl-1-[(4-phenoxyphenyl)methylidene]-1H-inden-3-yl]-N-hydroxy-N-methylacetamide]: the inhibition at 3.3 µM in test [1] is at least 50%; in test [2], at least 50%; in test [3], at least 50%; in the test with SW480 (colon cancer), at least 50%; with HeLa (cervical cancer) it was 30 to 50%; in the test on HepG2 (liver cancer) it was under 30%. For the same compound, the inhibition at 3.3 µM in test [4] was at least 50%. For the same compound, the inhibition at 10 µM was at least 50% in test [1]; at least 50% in test [2]; at least 50% in test [3]; at least 50% in the test on SW480 (colon cancer); at least 50% in the test with HeLa (cervical cancer); 30 to 50% in the test with HepG2 (liver cancer). Further, the inhibition at 10 µM in test [4] is at least 50%; in test [5], 50 to 80%. For the same compound, the inhibition at 30 µM (in test [1]; in test [2]; in test [3]; with SW480 (colon cancer); in the test with HeLa (cervical cancer); in the test with HepG2 (liver cancer)) was at least 50% in each case. Further, in test [4], the inhibition at 30 µM was at least 50%.
Regarding `CC1=C(CC(=O)O)c2cc(F)ccc2/C1=C\c1ccc(CN(C)c2ccccc2)cc1` [Compound A9, 2-[(1Z)-5-Fluoro-2-methyl-1-[(4-{[methyl(phenyl)amino]methyl}phenyl)-methylidene]-1H-inden-3-yl]acetic acid], the inhibition at 3.3 µM in test [1] was 30 to 50%; in test [2], at least 50%; in test [3], at least 50%; with SW480 (colon cancer), at least 50%; with HeLa (cervical cancer) it was under 30%; in the test on HepG2 (liver cancer) it was under 30%. Further, the inhibition at 3.3 µM in test [4] is under 30%. Moreover, the inhibition at 10 µM was at least 50% in test [1]; at least 50% in test [2]; at least 50% in test [3]; at least 50% in the test with SW480 (colon cancer); 30 to 50% in the test on HeLa (cervical cancer); under 30% with HepG2 (liver cancer). The inhibition at 10 µM in test [4] was at least 50%; in test [5], at least 80%. For the same compound, the inhibition at 30 µM (in test [1]; in test [2]; in test [3]; with SW480 (colon cancer); in the test on HeLa (cervical cancer); with HepG2 (liver cancer)) was at least 50% each time. Moreover, the inhibition at 30 µM in test [4] is at least 50%.
Turning to `CC1=C(CC(=O)O)c2cc(F)ccc2/C1=C\c1cccc(COc2ccc(F)cc2)c1` [Compound A6, 2-[(1Z)-5-Fluoro-1-({3-[(4-fluorophenoxy)methyl]phenyl}methylidene)-2-methyl-1H-inden-3-yl]acetic acid], the inhibition at 3.3 µM in test [1] is at least 50%; in test [2] it was under 30%; in test [3], under 30%; in the test with SW480 (colon cancer), under 30%; in the test with HeLa (cervical cancer), at least 50%; in the test with HepG2 (liver cancer), at least 50%. For the same compound, the inhibition at 3.3 µM in test [4] lay in the range of 30 to 50%. Further, the inhibition at 10 µM is at least 50% in test [1]; 30 to 50% in test [2]; 30 to 50% in test [3]; at least 50% with SW480 (colon cancer); at least 50% with HeLa (cervical cancer); at least 50% in the test with HepG2 (liver cancer). Also, the inhibition at 10 µM in test [4] is at least 50%; in test [5], at least 80%. Moreover, the inhibition at 30 µM (in test [1]; in test [2]; in test [3]; in the test with SW480 (colon cancer); in the test on HeLa (cervical cancer); in the test on HepG2 (liver cancer)) was at least 50% in each case. In addition, the inhibition at 30 µM in test [4] was at least 50%.
With `CC1=C(CC(=O)O)c2cc(F)ccc2/C1=C/c1ccc(Oc2ccc(F)c(F)c2)cc1` [Compound E1, 2-[(1E)-5-Fluoro-2-methyl-1-({4-[3,4-difluorophenoxy]phenyl}methylidene)-1H-inden-3-yl]acetic acid], the inhibition at 3.3 µM in test [1] is at least 50%; in test [2], under 30%; in test [3], 30 to 50%; with SW480 (colon cancer), at least 50%; in the test with HeLa (cervical cancer), 30 to 50%; in the test with HepG2 (liver cancer), at least 50%. Also, the inhibition at 3.3 µM in test [4] is 30 to 50%. Moreover, the inhibition at 10 µM in test [1] is at least 50%; in test [2], 30 to 50%; in test [3], at least 50%; in the test on SW480 (colon cancer), at least 50%; in the test with HeLa (cervical cancer), at least 50%; with HepG2 (liver cancer), at least 50%. The inhibition at 10 µM is at least 50% in test [4] and at least 80% in test [5]. Further, the inhibition at 30 µM (in test [1]; in test [2]; in test [3]; in the test on SW480 (colon cancer); with HeLa (cervical cancer); with HepG2 (liver cancer)) was at least 50% each time. For the same compound, in test [4], the inhibition at 30 µM is at least 50%.
